Earlier results in patent US12180499B2, “Compositions and methods for impeding transcription of expanded microsatellite repeats” (University of Florida Research Foundation, Inc., priority 2016, dated 2024).
Starred links: 1 amine or outer side, 2 acyl side, 3 side chain; linkers in the order of their positions; H or OH if unused. Positions of bridges follow the written chain, without caps; N, C: chain ends. Non-standard residues stand in square brackets, D forms with d. Residues, ends and D or L forms follow the SMILES beside them. Chains are numbered I, II in the order given. Actinocin(9to1) = Cc1c2oc3c(C)ccc(C(=O)[*:1])c3nc-2c(C(=O)[*:2])c(N)c1=O; NMeV = CN[C@H](C(=O)O)C(C)C; Sar = CNCC(=O)O

System: expanded CTG repeats
Conditions: low nanomolar doses; cited from earlier work

Cc1c2oc3c(C)ccc(C(=O)N[C@@H]4C(=O)N[C@H](C(C)C)C(=O)N5CCC[C@H]5C(=O)N(C)CC(=O)N(C)[C@@H](C(C)C)C(=O)O[C@@H]4C)c3nc-2c(C(=O)N[C@@H]2C(=O)N[C@H](C(C)C)C(=O)N3CCC[C@H]3C(=O)N(C)CC(=O)N(C)[C@@H](C(C)C)C(=O)O[C@@H]2C)c(N)c1=O [actinomycin D] (I: T[dV]P[Sar][NMeV] / II: T[dV]P[Sar][NMeV]; ester I:1-I:C, II:1-II:C; linker I:N-II:N via Actinocin(9to1))
transcription of expanded CTG repeats: preferentially impede transcription of expanded CTG repeats
